# Assay results reported in ChEMBL document CHEMBL1921774, “Evaluation of 18F-labeled benzodioxine piperazine-based dopamine D4 receptor ligands: lipophilicity as a determinate of nonspecific binding” (J Med Chem, 2011).
# Tests used:
# [1] = tested on: Heart; test: Biodistribution in NMRI mouse heart at 1.1 to 2.6 MBq, iv after 5 mins by gamma counting; type: ADME, organism-based; conditions: in vivo
# [2] = tested on: Brain; test: Biodistribution in NMRI mouse brain at 1.1 to 2.6 MBq, iv after 5 mins by gamma counting; type: ADME, organism-based; conditions: in vivo
# [3] = tested on: Lung; test: Biodistribution in NMRI mouse lung at 1.1 to 2.6 MBq, iv after 5 mins by gamma counting; type: ADME, organism-based; conditions: in vivo
# [4] = tested on: Liver; test: Biodistribution in NMRI mouse liver at 1.1 to 2.6 MBq, iv after 5 mins by gamma counting; type: ADME, organism-based; conditions: in vivo
# [5] = tested on: Kidney; test: Biodistribution in NMRI mouse kidney at 1.1 to 2.6 MBq, iv after 5 mins by gamma counting; type: ADME, organism-based; conditions: in vivo
# [6] = tested on: Spleen; test: Biodistribution in NMRI mouse spleen at 1.1 to 2.6 MBq, iv after 5 mins by gamma counting; type: ADME, organism-based; conditions: in vivo
# [7] = tested on: Intestine; test: Biodistribution in NMRI mouse intestine at 1.1 to 2.6 MBq, iv after 5 mins by gamma counting; type: ADME, organism-based; conditions: in vivo
# [8] = tested on: Pancreas; test: Biodistribution in NMRI mouse pancreas at 1.1 to 2.6 MBq, iv after 5 mins by gamma counting; type: ADME, organism-based; conditions: in vivo
# [9] = tested on: Bone; test: Biodistribution in NMRI mouse bone at 1.1 to 2.6 MBq, iv after 5 mins by gamma counting; type: ADME, organism-based, Bone element; conditions: in vivo
# [10] = tested on: Blood; test: Biodistribution in NMRI mouse blood at 1.1 to 2.6 MBq, iv after 5 mins by gamma counting; type: ADME, organism-based; conditions: in vivo
# [11] = tested on: Heart; test: Biodistribution in NMRI mouse heart at 1.1 to 2.6 MBq, iv after 10 mins by gamma counting; type: ADME, organism-based; conditions: in vivo
# [12] = tested on: Brain; test: Biodistribution in NMRI mouse brain at 1.1 to 2.6 MBq, iv after 10 mins by gamma counting; type: ADME, organism-based; conditions: in vivo
# [13] = tested on: Lung; test: Biodistribution in NMRI mouse lung at 1.1 to 2.6 MBq, iv after 10 mins by gamma counting; type: ADME, organism-based; conditions: in vivo
# [14] = tested on: Liver; test: Biodistribution in NMRI mouse liver at 1.1 to 2.6 MBq, iv after 10 mins by gamma counting; type: ADME, organism-based; conditions: in vivo
# [15] = tested on: Kidney; test: Biodistribution in NMRI mouse kidney at 1.1 to 2.6 MBq, iv after 10 mins by gamma counting; type: ADME, organism-based; conditions: in vivo
# [16] = tested on: Spleen; test: Biodistribution in NMRI mouse spleen at 1.1 to 2.6 MBq, iv after 10 mins by gamma counting; type: ADME, organism-based; conditions: in vivo
# [17] = tested on: Intestine; test: Biodistribution in NMRI mouse intestine at 1.1 to 2.6 MBq, iv after 10 mins by gamma counting; type: ADME, organism-based; conditions: in vivo
# [18] = tested on: Pancreas; test: Biodistribution in NMRI mouse pancreas at 1.1 to 2.6 MBq, iv after 10 mins by gamma counting; type: ADME, organism-based; conditions: in vivo
# [19] = tested on: Bone; test: Biodistribution in NMRI mouse bone at 1.1 to 2.6 MBq, iv after 10 mins by gamma counting; type: ADME, organism-based, Bone element; conditions: in vivo
# [20] = tested on: Blood; test: Biodistribution in NMRI mouse blood at 1.1 to 2.6 MBq, iv after 10 mins by gamma counting; type: ADME, organism-based; conditions: in vivo
# [21] = tested on: Heart; test: Biodistribution in NMRI mouse heart at 1.1 to 2.6 MBq, iv after 15 mins by gamma counting; type: ADME, organism-based; conditions: in vivo, 0.25 h
# [22] = tested on: Brain; test: Biodistribution in NMRI mouse brain at 1.1 to 2.6 MBq, iv after 15 mins by gamma counting; type: ADME, organism-based; conditions: in vivo, 0.25 h
# [23] = tested on: Lung; test: Biodistribution in NMRI mouse lung at 1.1 to 2.6 MBq, iv after 15 mins by gamma counting; type: ADME, organism-based; conditions: in vivo, 0.25 h
# [24] = tested on: Liver; test: Biodistribution in NMRI mouse liver at 1.1 to 2.6 MBq, iv after 15 mins by gamma counting; type: ADME, organism-based; conditions: in vivo, 0.25 h
# [25] = tested on: Kidney; test: Biodistribution in NMRI mouse kidney at 1.1 to 2.6 MBq, iv after 15 mins by gamma counting; type: ADME, organism-based; conditions: in vivo, 0.25 h
# [26] = tested on: Spleen; test: Biodistribution in NMRI mouse spleen at 1.1 to 2.6 MBq, iv after 15 mins by gamma counting; type: ADME, organism-based; conditions: in vivo, 0.25 h
# [27] = tested on: Intestine; test: Biodistribution in NMRI mouse intestine at 1.1 to 2.6 MBq, iv after 15 mins by gamma counting; type: ADME, organism-based; conditions: in vivo, 0.25 h
# [28] = tested on: Pancreas; test: Biodistribution in NMRI mouse pancreas at 1.1 to 2.6 MBq, iv after 15 mins by gamma counting; type: ADME, organism-based; conditions: in vivo, 0.25 h
# [29] = tested on: Bone; test: Biodistribution in NMRI mouse bone at 1.1 to 2.6 MBq, iv after 15 mins by gamma counting; type: ADME, organism-based, Bone element; conditions: in vivo, 0.25 h
# [30] = tested on: Blood; test: Biodistribution in NMRI mouse blood at 1.1 to 2.6 MBq, iv after 15 mins by gamma counting; type: ADME, organism-based; conditions: in vivo, 0.25 h
# [31] = tested on: Heart; test: Biodistribution in NMRI mouse heart at 1.1 to 2.6 MBq, iv after 30 mins by gamma counting; type: ADME, organism-based; conditions: in vivo, 0.5 h
# [32] = tested on: Brain; test: Biodistribution in NMRI mouse brain at 1.1 to 2.6 MBq, iv after 30 mins by gamma counting; type: ADME, organism-based; conditions: in vivo, 0.5 h
# [33] = tested on: Lung; test: Biodistribution in NMRI mouse lung at 1.1 to 2.6 MBq, iv after 30 mins by gamma counting; type: ADME, organism-based; conditions: in vivo, 0.5 h
# [34] = tested on: Liver; test: Biodistribution in NMRI mouse liver at 1.1 to 2.6 MBq, iv after 30 mins by gamma counting; type: ADME, organism-based; conditions: in vivo, 0.5 h
# [35] = tested on: Kidney; test: Biodistribution in NMRI mouse kidney at 1.1 to 2.6 MBq, iv after 30 mins by gamma counting; type: ADME, organism-based; conditions: in vivo, 0.5 h
# [36] = tested on: Spleen; test: Biodistribution in NMRI mouse spleen at 1.1 to 2.6 MBq, iv after 30 mins by gamma counting; type: ADME, organism-based; conditions: in vivo, 0.5 h
# [37] = tested on: Intestine; test: Biodistribution in NMRI mouse intestine at 1.1 to 2.6 MBq, iv after 30 mins by gamma counting; type: ADME, organism-based; conditions: in vivo, 0.5 h
# [38] = tested on: Pancreas; test: Biodistribution in NMRI mouse pancreas at 1.1 to 2.6 MBq, iv after 30 mins by gamma counting; type: ADME, organism-based; conditions: in vivo, 0.5 h
# [39] = tested on: Bone; test: Biodistribution in NMRI mouse bone at 1.1 to 2.6 MBq, iv after 30 mins by gamma counting; type: ADME, organism-based, Bone element; conditions: in vivo, 0.5 h
# [40] = tested on: Blood; test: Biodistribution in NMRI mouse blood at 1.1 to 2.6 MBq, iv after 30 mins by gamma counting; type: ADME, organism-based; conditions: in vivo, 0.5 h
# [41] = tested on: Serum; test: Metabolic stability in NMRI mouse serum assessed as remaining radioactivity at 1.1 to 2.6 MBq, iv by TLC analysis; type: ADME, organism-based; conditions: in vivo
# [42] = tested on: Brain; test: Drug metabolism in NMRI mouse brain at […], iv measured 10 mins post injection; type: ADME, organism-based; conditions: in vivo
# [43] = Chemical stability of the compound on silica gel on TLC plate assessed as half life; type: physicochemical
# [44] = Chemical stability of the compound on […] oxide gel on TLC plate assessed as half life; type: physicochemical
structure (smiles),measurement,setting,value
[18F]c1ccc(CN2CCN(c3ccc4c(c3)OCCO4)CC2)cn1,Drug uptake,[1],1.8 % ID/g
same,Drug uptake,[2],4.93 % ID/g
same,Drug uptake,[3],12.99 % ID/g
same,Drug uptake,[4],4.13 % ID/g
same,Drug uptake,[5],8.23 % ID/g
same,Drug uptake,[6],4.42 % ID/g
same,Drug uptake,[7],2.16 % ID/g
same,Drug uptake,[8],8.36 % ID/g
same,Drug uptake,[9],2.03 % ID/g
same,Drug uptake,[10],1.62 % ID/g
same,Drug uptake,[11],0.52 % ID/g
same,Drug uptake,[12],2.85 % ID/g
same,Drug uptake,[13],4.84 % ID/g
same,Drug uptake,[14],6.78 % ID/g
same,Drug uptake,[15],5.86 % ID/g
same,Drug uptake,[16],3.6 % ID/g
same,Drug uptake,[17],2.68 % ID/g
same,Drug uptake,[18],11.1 % ID/g
same,Drug uptake,[19],2.54 % ID/g
same,Drug uptake,[20],1.29 % ID/g
same,Drug uptake,[21],0.58 % ID/g
same,Drug uptake,[22],2.27 % ID/g
same,Drug uptake,[23],4.79 % ID/g
same,Drug uptake,[24],5.67 % ID/g
same,Drug uptake,[25],4.67 % ID/g
same,Drug uptake,[26],3.19 % ID/g
same,Drug uptake,[27],2.51 % ID/g
same,Drug uptake,[28],6.88 % ID/g
same,Drug uptake,[29],2.7 % ID/g
same,Drug uptake,[30],1.23 % ID/g
same,Drug uptake,[31],1.13 % ID/g
same,Drug uptake,[32],1.47 % ID/g
same,Drug uptake,[33],2.68 % ID/g
same,Drug uptake,[34],7.79 % ID/g
same,Drug uptake,[35],6.03 % ID/g
same,Drug uptake,[36],3.13 % ID/g
same,Drug uptake,[37],4.47 % ID/g
same,Drug uptake,[38],7.43 % ID/g
same,Drug uptake,[39],0.93 % ID/g
same,Drug uptake,[40],0.53 % ID/g
same,Stability,[41],> 98%
same,Drug metabolism,[42],Active
same,half-life,[43],15 min
same,half-life,[44],50 min
